The source of these data is patent publication US12180461B2 (priority 2018, dated 2024).

In general, LD50 refers to the dose at which mortality reaches 50%. A higher LD50 goes with lower toxicity.

For data set [1], the system named is various strains of L. pneumophila. It counts as cell-based.
For data set [2], the system named is Staphylococcus aureus (ATCC strain 29213). The experiment in a line: MIC of quality control strain on Mueller-Hinton agar and on Lasarus medium. It counts as cell-based.
For data set [3], the system named is Legionella pneumophila isolates. The experiment in a line: microbe, parasite or virus in culture. It counts as cell-based. Conditions: for MIC50 / MIC90: Legionella pneumophila; for MIC50: read-out: MIC50 (average); for MIC90: read-out: MIC90 (average).
In another data set the test system is Legionella. It counts as cell-based.
The subject of another data set is rats. The settings on record: rat, in vivo, po.
The mark [4] stands for this setting: ATCC29213, S. aureus ATCC 29213 on Lasarus medium, read-out: MIC100 (on Lasarus medium).
Setting [5] is: ATCC29213, S. aureus ATCC 29213 on standard Mueller-Hinton agar, read-out: MIC100 (on M-Hinton).
The mark [6] stands for this setting: 92 Legionella pneumophila isolates on Lasarus solid medium.
[7] abbreviates: average across 92 Legionella pneumophila isolates on Lasarus solid medium.

Values after ≈ are worked out from the molar mass of the structure shown. Where two headings read alike, the source gives them in different places.

As to `CC[C@H]1OC(=O)[C@H](C)[C@@H](O[C@H]2C[C@@](C)(OC)[C@@H](O)[C@H](C)O2)[C@H](C)[C@@H](O[C@@H]2O[C@H](C)C[C@H](N(C)C)[C@H]2O)[C@](C)(O)C[C@@H](C)CN(C)[C@H](C)[C@@H](O)[C@]1(C)O` [Azithromycin], the “number of strains that could grow (on average)” value in data set [1] (BCYE, antibiotic 0.25 μg/ml) was “more than 20 strains”; in data set [1] (BCYE, antibiotic 0.5 μg/ml) it was greater than 5 strains; in data set [1] (medium (Lasarus), antibiotic 0.06 μg/ml), “less than 15 strains”. Also, the “number of strains tested that could grow (on average)” value in data set [1] (Lasarus medium, antibiotic 0.03 μg/ml) is roughly 20 strains. For the same compound, the “number of strains tested that could grow” value in data set [1] (Lasarus medium, antibiotic 0.125 μg/ml) was “None”. In addition, the MIC in data set [2] (setting [4]) and in data set [2] (setting [5]) was 2 µg/mL in each case. In data set [3] (setting [6]), the “Ranges (MIC100)” value lay in the range of 0.008 to 0.25 µg/mL. Besides, the MIC50 in data set [3] is 0.03 µg/mL (≈ 0.0401 µM). Further, the MIC90 in data set [3] came to 0.125 µg/mL (≈ 0.167 µM).
In the case of Gentamycin, the “Ranges (MIC100)” value in data set [3] (setting [6]) lay in the range of 0.06 to 1 µg/mL. In data set [3] (setting [7]), the “MIC50 (average)” value stood at 0.25 µg/mL and the “MIC90 (average)” value is 0.5 µg/mL.
As for `O=C(N[C@H](CO)[C@H](O)c1ccc([N+](=O)[O-])cc1)C(Cl)Cl` [Chloramphenicol], in data set [2] (setting [4]), the MIC stood at 4 µg/mL. Also, in data set [2] (setting [5]), the MIC is 4 µg/mL. The “Ranges (MIC100)” value in data set [3] (setting [6]) lay within 0.25 to 1 µg/mL. In data set [3], the MIC50 was 0.5 µg/mL (≈ 1.55 µM) and the MIC90 was 0.5 µg/mL (≈ 1.55 µM).
In the data set on Legionella, `[Cl-].[Na+]` [NaCl, sodium chloride] displayed an MIC50 of 150 mM and an MIC90 of 150 mM. The same compound returned an LD50 in the data set with rats of 3000 mg/kg.
In the data set with Legionella, `[Cl-].[Li+]` [LiCl, lithium chloride] registered an MIC50 of 75 mM and an MIC90 of 75 mM. Also, the LD50 in the data set with rats turned out to be 526 mg/kg.
Regarding `CO[C@H]1/C=C/O[C@@]2(C)Oc3c(C)c(O)c4c(O)c(c(/C=N/N5CCN(C)CC5)c(O)c4c3C2=O)NC(=O)/C(C)=C\C=C\[C@H](C)[C@H](O)[C@@H](C)[C@@H](O)[C@@H](C)[C@H](OC(C)=O)[C@@H]1C` [Rifampacin], the “number of strains that could grow (on average)” value is “more than 30 strains” in data set [1] (BCYE, antibiotic 0.06 μg/ml) and “more than 15 strains” in data set [1] (BCYE, antibiotic 0.125 μg/ml). Further, in data set [1] (Lasarus medium, antibiotic 0.004 μg/ml, quadruplicate), the “number of strains tested that could grow (on average)” value is roughly 35 strains. In addition, the “number of strains that could grow (on average), reduced number” value in data set [1] (medium, antibiotic concentration printed as 0.004 μg/ml (second mention)) is “less than 15 strains”. Moreover, the MIC in data set [2] (setting [4]) and in data set [2] (setting [5]) was 0.016 µg/mL each time. The “Ranges (MIC100)” value in data set [3] (setting [6]) is 0.002 to 0.008 µg/mL. Further, the MIC50 in data set [3] was determined as 0.004 µg/mL (≈ 0.00486 µM). Moreover, in data set [3], the MIC90 amounted to 0.008 µg/mL (≈ 0.00972 µM).
In the case of `CN(C)[C@@H]1C(O)=C(C(N)=O)C(=O)[C@@]2(O)C(O)=C3C(=O)c4c(O)cccc4[C@@](C)(O)[C@H]3C[C@@H]12` [Tetracycline], in data set [3] (setting [6]), the “Ranges (MIC100)” value lay in the range of 32 to 128 µg/mL. In data set [3], the MIC50 turned out to be 128 µg/mL (≈ 288 µM) and the MIC90 turned out to be 128 µg/mL (≈ 288 µM).
In the data set on Legionella, `[Ba+2].[Cl-].[Cl-]` [BaCl2, barium chloride] gave an MIC50 of 4 mM and an MIC90 of 9 mM. This compound also came in with an LD50 in the data set with rats of 78 mg/kg.
In the case of `[Cl-].[Rb+]` [RbCl, rubidium chloride], in the data set on Legionella, the MIC50 is reported as 150 mM and the MIC90 is listed as 150 mM. In the data set with rats, this compound yielded an LD50 of 4440 mg/kg.
In the data set with Legionella, `[Cl-].[Cl-].[Sr+2]` [SrCl, strontium chloride] came in with an MIC50 of 18 mM and an MIC90 of 18 mM. Moreover, in the data set with rats, the LD50 is 2250 mg/kg.
In the case of `[Cl-].[Cs+]` [CsCl, caesium chloride], in the data set on Legionella, the MIC50 is 18 mM and the MIC90 worked out at 37 mM. Moreover, in the data set on rats, the 50% lethal dose (LD50) came out at 2600 mg/kg.
On the same counts, the results for `[Cl-].[Cl-].[Mg+2]` [MgCl, magnesium chloride] are 37 mM, 75 mM and 2800 mg/kg.
Consider `O=C(O)c1cn(C2CC2)c2cc(N3CCNCC3)c(F)cc2c1=O` [Ciprofloxacin], for which the “Ranges (MIC100)” value in data set [3] (setting [6]) was in the range of 0.008 to 0.06 µg/mL. Also, in data set [3], the MIC50 was determined as 0.03 µg/mL (≈ 0.0905 µM) and the MIC90 is 0.06 µg/mL (≈ 0.181 µM).
As for `C[C@H]1COc2c(N3CCN(C)CC3)c(F)cc3c(=O)c(C(=O)O)cn1c23` [Levofloxacin], the “number of strains that could grow (on average)” value in data set [1] (BCYE, antibiotic 1 μg/ml) is reported as “more than 25 strains”; in data set [1] (BCYE, antibiotic 2 μg/ml), “more than 15 strains”. Besides, the “number of strains tested that could grow (on average)” value in data set [1] (Lasarus medium, antibiotic 0/03 μg/ml) is roughly 30 strains. Besides, the MIC in data set [2] (setting [4]) and in data set [2] (setting [5]) was 0.25 µg/mL in each case. Also, the “Ranges (MIC100)” value in data set [3] (setting [6]) lay within 0.008 to 0.06 µg/mL. Further, in data set [3], the MIC50 turned out to be 0.03 µg/mL (≈ 0.083 µM). Also, the MIC90 in data set [3] stood at 0.06 µg/mL (≈ 0.166 µM).
Take beryllium sulfate [BeSO4]: in the data set on Legionella, the MIC50 worked out at 4 mM and the MIC90 is recorded as 4 mM.
On to `CC1(C)S[C@@H]2[C@H](NC(=O)[C@H](N)c3ccccc3)C(=O)N2[C@H]1C(=O)O` [Ampacilin], for which, in data set [3], the “MIC50 (average)” value is 8 µg/mL (≈ 22.9 µM), the “MIC90 (average)” value amounted to 32 µg/mL (≈ 91.6 µM) and the “Ranges (MIC100)” value was in the range of 1 to 32 µg/mL.
In the data set on Legionella, `[Ca+2].[Cl-].[Cl-]` [CaCl2, calcium chloride] displayed an MIC50 of 9 mM and an MIC90 of 18 mM. The same compound came in with a 50% lethal dose (LD50) with rats of 1000 mg/kg.
